Reference: ChEMBL document CHEMBL4616696, “Construction and Evaluation of Molecular Models: Guide and Design of Novel SE Inhibitors” (ACS Med Chem Lett, 2020)
≈ marks a conversion by molar mass, not a printed value. Calls of active or inactive are those of the source. The rule behind the calls is not given here.

Experiments:
Aspergillus fumigatus = experiment: Antifungal activity against Aspergillus fumigatus KM8001 assessed as reduction in fungal growth by NCCLS method; type: functional
Candida albicans [1] = experiment: Antifungal activity against Candida albicans ATCC 10231 assessed as reduction in fungal growth by NCCLS method; type: functional
Candida tropicalis = experiment: Antifungal activity against Candida tropicalis ATCC 1369 assessed as reduction in fungal growth by NCCLS method; type: functional
Pichia kudriavzevii = experiment: Antifungal activity against Candida krusei ATCC 6258 assessed as reduction in fungal growth by NCCLS method; type: functional
Nakaseomyces glabratus = experiment: Antifungal activity against Candida glabrata ATCC 0001 assessed as reduction in fungal growth by NCCLS method; type: functional
Candida albicans [2] = experiment: Antifungal activity against fluconazole-resistant Candida albicans 901 assessed as reduction in fungal growth by NCCLS method; type: functional
Candida albicans [3] = experiment: Antifungal activity against fluconazole-resistant Candida albicans 632 assessed as reduction in fungal growth by NCCLS method; type: functional
Candida albicans [4] = experiment: Antifungal activity against fluconazole-resistant Candida albicans CaR assessed as reduction in fungal growth by NCCLS method; type: functional
Candida albicans [5] = experiment: Antifungal activity against fluconazole-resistant Candida albicans 17# assessed as reduction in fungal growth by NCCLS method; type: functional
Candida albicans [6] = experiment: Antifungal activity against fluconazole-resistant Candida albicans 904 assessed as reduction in fungal growth by NCCLS method; type: functional
[7] = molecular target: T1, Squalene epoxidase ERG1 (Candida albicans) (UniProt Q92206); experiment: Inhibition of SE in Candida albicans ATCC SC5314 assessed as inhibition of ergosterol biosynthesis by measuring increase in squalene content at 4 ug/ml incubated for 16 hrs by LC-MS analysis relative to control; parameters: scale not given: the % may be the effect or the level left
T1 sequence (whole entry): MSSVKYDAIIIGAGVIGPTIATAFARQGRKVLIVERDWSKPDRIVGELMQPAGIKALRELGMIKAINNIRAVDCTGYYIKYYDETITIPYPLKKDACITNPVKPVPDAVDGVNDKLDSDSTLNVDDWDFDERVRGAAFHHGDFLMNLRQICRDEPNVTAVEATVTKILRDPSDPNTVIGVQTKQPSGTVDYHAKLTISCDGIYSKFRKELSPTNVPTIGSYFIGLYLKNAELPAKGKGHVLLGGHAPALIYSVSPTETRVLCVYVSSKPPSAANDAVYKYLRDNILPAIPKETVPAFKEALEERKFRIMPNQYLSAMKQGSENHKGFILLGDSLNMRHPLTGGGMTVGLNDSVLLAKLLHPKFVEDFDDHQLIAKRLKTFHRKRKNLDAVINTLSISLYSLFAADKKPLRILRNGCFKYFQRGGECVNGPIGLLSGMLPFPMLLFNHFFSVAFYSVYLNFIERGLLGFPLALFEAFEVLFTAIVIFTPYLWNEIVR

[8] = molecular target: T1, Squalene epoxidase ERG1 (Candida albicans); experiment: Inhibition of SE in Candida albicans ATCC SC5314 assessed as inhibition of ergosterol biosynthesis by measuring eburicol content at 0.5 ug/ml incubated for 16 hrs by LC-MS analysis; parameters: scale not given: the % may be the effect or the level left
[9] = molecular target: T1, Squalene epoxidase ERG1 (Candida albicans); experiment: Inhibition of SE in Candida albicans ATCC SC5314 assessed as inhibition of ergosterol biosynthesis by measuring unknown sterol content at 4 ug/ml incubated for 16 hrs by LC-MS analysis; parameters: scale not given: the % may be the effect or the level left
[10] = molecular target: T1, Squalene epoxidase ERG1 (Candida albicans); experiment: Inhibition of SE in Candida albicans ATCC SC5314 assessed as inhibition of ergosterol biosynthesis by measuring increase in squalene content at 0.5 ug/ml incubated for 16 hrs by LC-MS analysis relative to control; parameters: scale not given: the % may be the effect or the level left
[11] = molecular target: T1, Squalene epoxidase ERG1 (Candida albicans); experiment: Inhibition of SE in Candida albicans ATCC SC5314 assessed as inhibition of ergosterol biosynthesis by measuring increase in squalene content at 0.125 ug/ml incubated for 16 hrs by LC-MS analysis relative to control; parameters: scale not given: the % may be the effect or the level left
[12] = molecular target: T1, Squalene epoxidase ERG1 (Candida albicans); experiment: Inhibition of SE in Candida albicans ATCC SC5314 assessed as inhibition of ergosterol biosynthesis by measuring eburicol content at 4 ug/ml incubated for 16 hrs by LC-MS analysis; parameters: scale not given: the % may be the effect or the level left
[13] = molecular target: T1, Squalene epoxidase ERG1 (Candida albicans); experiment: Inhibition of SE in Candida albicans ATCC SC5314 assessed as inhibition of ergosterol biosynthesis by measuring ergosterol content at 4 ug/ml incubated for 16 hrs by LC-MS analysis; parameters: scale not given: the % may be the effect or the level left
[14] = molecular target: T1, Squalene epoxidase ERG1 (Candida albicans); experiment: Inhibition of SE in Candida albicans ATCC SC5314 assessed as inhibition of ergosterol biosynthesis by measuring unknown sterol content at 0.5 ug/ml incubated for 16 hrs by LC-MS analysis; parameters: scale not given: the % may be the effect or the level left
[15] = molecular target: T1, Squalene epoxidase ERG1 (Candida albicans); experiment: Inhibition of SE in Candida albicans ATCC SC5314 assessed as inhibition of ergosterol biosynthesis by measuring unknown sterol content at 0.125 ug/ml incubated for 16 hrs by LC-MS analysis; parameters: scale not given: the % may be the effect or the level left
[16] = molecular target: T1, Squalene epoxidase ERG1 (Candida albicans); experiment: Inhibition of SE in Candida albicans ATCC SC5314 assessed as inhibition of ergosterol biosynthesis by measuring ergosterol content at 0.125 ug/ml incubated for 16 hrs by LC-MS analysis; parameters: scale not given: the % may be the effect or the level left
[17] = molecular target: T1, Squalene epoxidase ERG1 (Candida albicans); experiment: Inhibition of SE in Candida albicans ATCC SC5314 assessed as inhibition of ergosterol biosynthesis by measuring ergosterol content at 0.5 ug/ml incubated for 16 hrs by LC-MS analysis; parameters: scale not given: the % may be the effect or the level left
Candida albicans [18] = experiment: Antifungal activity against Candida albicans ATCC SC5314 assessed as exudation of internal materials from cells at 4 ug/ml measured upto 48 hrs by TEM analysis; type: functional, organism-based
Candida albicans [19] = experiment: Antifungal activity against Candida albicans ATCC SC5314 assessed as cell wall disruption at 4 ug/ml measured upto 48 hrs by TEM analysis; type: functional, organism-based
Candida albicans [20] = experiment: Antifungal activity against Candida albicans ATCC SC5314 assessed as reduction in fungal growth density at 5 and 50 nmol/ml; type: functional, organism-based
[21] = Stability in human plasma assessed as compound remaining incubated for 60 mins; type: ADME, cell-free; details: read-out: Stability
[22] = Stability in human plasma assessed as compound remaining incubated for 120 mins; type: ADME, cell-free; details: read-out: Stability
Candida albicans [23] = experiment: Antifungal activity against Candida albicans ATCC SC5314 assessed as cell membrane disruption at 4 ug/ml measured upto 48 hrs by TEM analysis; type: functional, organism-based
Candida albicans [24] = experiment: Antifungal activity against Candida albicans ATCC SC5314 assessed as reduction in cell division at 4 ug/ml measured upto 48 hrs by TEM analysis; type: functional, organism-based

Structure (SMILES)	MIC (Aspergillus fumigatus)	MIC (Candida albicans [1])	MIC (Candida tropicalis)	MIC (Pichia kudriavzevii)	MIC (Nakaseomyces glabratus)	MIC (Candida albicans [2])	MIC (Candida albicans [3])	MIC (Candida albicans [4])	MIC (Candida albicans [5])	MIC (Candida albicans [6])	further results
CN(CC(=O)Nc1ccccc1)C(=O)c1ccc2c(c1)OCCO2	8 µg/mL (≈ 24.5 µM)	1 µg/mL (≈ 3.06 µM)	0.5 µg/mL (≈ 1.53 µM)	2 µg/mL (≈ 6.13 µM)	0.5 µg/mL (≈ 1.53 µM)						
CN(CC(=O)Nc1ccccc1)C(=O)c1cccc2c1OCCO2	> 16 µg/mL	0.5 µg/mL (≈ 1.53 µM)	1 µg/mL (≈ 3.06 µM)	0.5 µg/mL (≈ 1.53 µM)	1 µg/mL (≈ 3.06 µM)						
CN(CC(=O)Nc1ccccc1)C(=O)c1cccc2ccccc12	8 µg/mL (≈ 25.1 µM)	0.25 µg/mL (≈ 0.785 µM)	0.5 µg/mL (≈ 1.57 µM)	0.25 µg/mL (≈ 0.785 µM)	0.5 µg/mL (≈ 1.57 µM)	4 µg/mL (≈ 12.6 µM)	> 16 µg/mL	8 µg/mL (≈ 25.1 µM)	> 16 µg/mL	> 16 µg/mL	
CN(CC(=O)Nc1ccccc1)C(=O)c1ccc2ccccc2c1	> 16 µg/mL	0.5 µg/mL (≈ 1.57 µM)	0.5 µg/mL (≈ 1.57 µM)	1 µg/mL (≈ 3.14 µM)	2 µg/mL (≈ 6.28 µM)						
CN(C/C=C/c1ccccc1)Cc1cccc2ccccc12 [NAFTIFINE]	> 16 µg/mL	0.5 µg/mL (≈ 1.74 µM)	0.5 µg/mL (≈ 1.74 µM)	1 µg/mL (≈ 3.48 µM)	0.5 µg/mL (≈ 1.74 µM)	> 16 µg/mL	8 µg/mL (≈ 27.8 µM)	4 µg/mL (≈ 13.9 µM)	8 µg/mL (≈ 27.8 µM)	8 µg/mL (≈ 27.8 µM)	Activity [7]: 64.5%; Activity [8]: 0.7%; Activity [9]: 5.4%; Activity [10]: 31.5%; Activity [11]: 14.8%; Activity [12]: 1.7%; Activity [13]: 28.4%; Activity [14]: 4.9%; Activity [15]: 1.6%; Activity [16]: 83.6%; Activity [17]: 62.9%
OC(Cn1cncn1)(Cn1cncn1)c1ccc(F)cc1F [FLUCONAZOLE]						> 16 µg/mL	> 16 µg/mL	> 16 µg/mL	> 16 µg/mL	> 16 µg/mL	
CN(CC(=O)NCc1ccccc1)C(=O)c1cccc2ccccc12	4 µg/mL (≈ 12 µM)	0.125 µg/mL (≈ 0.376 µM)	0.5 µg/mL (≈ 1.5 µM)	0.125 µg/mL (≈ 0.376 µM)	0.25 µg/mL (≈ 0.752 µM)	4 µg/mL (≈ 12 µM)	8 µg/mL (≈ 24.1 µM)	4 µg/mL (≈ 12 µM)	4 µg/mL (≈ 12 µM)	> 16 µg/mL	Activity [7]: 58.9%; Activity (Candida albicans [18]): Active; Activity [8]: 1.6%; Activity [9]: 7.1%; Activity [10]: 29.5%; Activity [11]: 9.8%; Activity (Candida albicans [19]): Active; Activity [12]: 2.3%; Activity [13]: 31.7%; Activity (Candida albicans [20]): Active; Activity [14]: 5%; remaining at 1 h [21]: 94.5%; remaining at 2 h [22]: 91.6%; Activity (Candida albicans [23]): Active; Activity [15]: 2.8%; Activity [16]: 87.4%; Activity (Candida albicans [24]): Active; Activity [17]: 63.9%
CN(CC(=O)NCc1ccccc1)C(=O)c1ccc2ccccc2c1	8 µg/mL (≈ 24.1 µM)	0.5 µg/mL (≈ 1.5 µM)	0.25 µg/mL (≈ 0.752 µM)	0.5 µg/mL (≈ 1.5 µM)	0.25 µg/mL (≈ 0.752 µM)						
CN(CC(=O)NCc1ccccc1)C(=O)c1cccc2c1OCCO2	8 µg/mL (≈ 23.5 µM)	0.25 µg/mL (≈ 0.734 µM)	0.5 µg/mL (≈ 1.47 µM)	0.25 µg/mL (≈ 0.734 µM)	0.25 µg/mL (≈ 0.734 µM)	> 16 µg/mL	> 16 µg/mL	4 µg/mL (≈ 11.8 µM)	> 16 µg/mL	8 µg/mL (≈ 23.5 µM)	remaining at 1 h [21]: 87.3%; remaining at 2 h [22]: 83.5%
CN(CC(=O)NCc1ccccc1)C(=O)c1ccc2c(c1)OCCO2	> 16 µg/mL	0.5 µg/mL (≈ 1.47 µM)	0.5 µg/mL (≈ 1.47 µM)	0.5 µg/mL (≈ 1.47 µM)	2 µg/mL (≈ 5.88 µM)						
